Measured values as given in EP1082958A2, “5-HT1F agonists in chronic pain” (ELI LILLY AND COMPANY, priority 1996, dated 1998).

How the values were obtained:
[1] = tested on: neuronal protein extravasation; experiment: Protein extravasation after electrical stimulation of the trigeminal ganglion (Evans Blue in dura); assay type: in vivo, Harlan Sprague-Dawley rats or guinea pigs; details: 10 minutes before stimulation of the left trigeminal ganglion, dose inhibiting extravasation by 50%, approximated from dose-response curve, rats or guinea pigs (species not given)
Protocol: Harlan Sprague-Dawley rats (225-325 g) or guinea pigs from Charles River Laboratories (225-325 g) were anesthetized with sodium pentobarbital intraperitoneally (65 mg/kg or 45 mg/kg respectively) and placed in a stereotaxic frame (David Kopf Instruments) with the incisor bar set at - 3.5 mm for rats or -4.0 mm for guinea pigs. Following a midline sagital scalp incision, two pairs of bilateral holes were drilled through the skull (6 mm posteriorly, 2.0 and 4.0 mm laterally in rats; 4 mm posteriorly and 3.2 and 5.2 mm laterally in guinea pigs, all coordinates referenced to bregma). Pairs of stainless steel stimulating electrodes (Rhodes Medical Systems, Inc.) were lowered through the holes in both hemispheres to a depth of 9 mm (rats) or 10.5 mm (guinea pigs) from dura.
The femoral vein was exposed and a dose of the test compound was injected intravenously (1 mL/kg). Approximately 7 minutes later, a 50 mg/kg dose of Evans Blue, a fluorescent dye, was also injected intravenously. The Evans Blue complexed with proteins in the blood and functioned as a marker for protein extravasation. Exactly 10 minutes post-injection of the test compound, the left trigeminal ganglion was stimulated for 3 minutes at a current intensity of 1.0 mA (5 Hz, 4 msec duration) with a Model 273 potentiostat/ galvanostat (EG&G Princeton Applied Research).
Fifteen minutes following stimulation, the animals were killed and exsanguinated with 20 mL of saline. The top of the skull was removed to facilitate the collection of the dural membranes. The membrane samples were removed from both hemispheres, rinsed with water, and spread flat on microscopic slides. Once dried, the tissues were coverslipped with a 70% glycerol/water solution.
A fluorescence microscope (Zeiss) equipped with a grating monochromator and a spectrophotometer was used to quantify the amount of Evans Blue dye in each sample. An excitation wavelength of approximately 535 nm was utilized and the emission intensity at 600 nm was determined. The microscope was equipped with a motorized stage and also interfaced with a personal computer. This facilitated the computer-controlled movement of the stage with fluorescence measurements at 25 points (500 µm steps) on each dural sample. The mean and standard deviation of the measurements was determined by the computer.
The extravasation induced by the electrical stimulation of the trigeminal ganglion was an ipsilateral effect (i.e. occurs only on the side of the dura in which the trigeminal ganglion was stimulated). This allows the other (unstimulated) half of the dura to be used as a control. The ratio of the amount of extravasation in the dura from the stimulated side compared to the unstimulated side dura was calculated. […]

5-HT1E = target: T1, 5-HT1E (Homo sapiens, UniProt P28566); experiment: Radioligand binding ([3H]5-HT displacement) to cloned 5-HT1E receptor; details: read-out: BINDING TO SEROTONIN (5-HT1) RECEPTOR SUBTYPES (Ki-nM) 5-HT1E, 4.5-5.5 nM [3H]5-HT, 37°C, Ki from IC50 by Cheng-Prusoff
T1 construct: expressed in transfected cells; host or cells: transfected Ltk- cells (by analogy 'as described supra')
T1 sequence (P28566 whole entry, species assumed): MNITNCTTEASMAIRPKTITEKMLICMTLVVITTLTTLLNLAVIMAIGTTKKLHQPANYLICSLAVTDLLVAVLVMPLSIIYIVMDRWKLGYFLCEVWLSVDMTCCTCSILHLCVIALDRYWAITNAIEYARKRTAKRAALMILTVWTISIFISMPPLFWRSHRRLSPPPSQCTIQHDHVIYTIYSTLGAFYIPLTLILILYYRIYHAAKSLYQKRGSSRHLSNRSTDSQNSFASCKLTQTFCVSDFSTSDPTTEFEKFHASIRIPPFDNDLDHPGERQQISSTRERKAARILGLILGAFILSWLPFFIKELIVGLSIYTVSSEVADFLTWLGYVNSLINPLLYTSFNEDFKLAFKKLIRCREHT
Protocol: Membrane Preparation: Membranes were prepared from transfected Ltk- cells which were grown to 100% confluency. The cells were washed twice with phosphate-buffered saline, scraped from the culture dishes into 5 mL of ice-cold phosphate-buffered saline, and centrifuged at 200 x g for 5 minutes ^at 4°C. The pellet was resuspended in 2.5 mL of ice-cold Tris buffer (20 mM Tris HCl, pH=7.4 a^t […]) and homogenized with a Wheaton tissue grinder. The lysate was subsequently centrifuged at 200 x g for 5 minutes at 4°C to pellet large fragments which were discarded. The supernatant was collected and centrifuged at 40,000 x g for 20 minutes at 4°C. […] Protein concentrations were determined by the method of Bradford (Anal. Biochem., 72, 248-254 (1976)).
Radioligand Binding: [^3H-5-HT] binding was performed using slight modifications of the 5-HT1D assay conditions reported by Herrick-Davis and Titeler (J. Neurochem., 50, 1624-1631 (1988)) with the omission of masking ligands. […] Incubation times were 30 minutes for both saturation and displacement studies based upon initial investigations which determined equilibrium binding conditions. […] Binding data was analyzed by computer-assisted nonlinear regression analysis (Accufit and Accucomp, Lunden Software, Chagrin Falls, OH). […]

CNS(=O)(=O)Cc1ccc2[nH]cc(CCN(C)C)c2c1.O=C(O)CCC(=O)O [Compound I, 3-[2-(dimethylamino)ethyl]-N-methyl-1H-indole-5-methanesulfonamide butane-1,4-dioate (1:1)]
Inhibition of Protein Extravasation, i.v. ID50 [1]: 2.6e-08 mmol/kg
Ki (5-HT1E): 2520 nM

O=C(O)C(=O)O.Oc1ccc2[nH]cc(C3CCNCC3)c2c1 [Compound III, 5-hydroxy-3-(4-piperidinyl)-1H-indole oxalate]
Inhibition of Protein Extravasation, i.v. ID50 [1]: 8.9e-09 mmol/kg

CCN(CC)C1CCc2cccc(Cl)c2C1.Cl (centres unmarked) [Compound IV, 8-chloro-2-diethylamino-1,2,3,4-tetrahydronaphthalene hydrochloride]
Inhibition of Protein Extravasation, i.v. ID50 [1]: 1.2e-07 mmol/kg

CN(C)C1CCc2[nH]c3ccc(O)cc3c2C1 (centres unmarked) [Compound V, 6-hydroxy-3-dimethylamino-1,2,3,4-tetrahydrocarbazole]
Inhibition of Protein Extravasation, i.v. ID50 [1]: 8.7e-09 mmol/kg
